# Laboratory results as given in US4698350A, “1-ethyl-6-fluoro-1,4-dihydro- 7-(2,6-dimethyl-4-pyridinyl)-4-oxo-3-quinolinecarboxylic acid and antibacterial use thereof” (Sterling Drug Inc., priority 1984, dated 1987).
# “Also recorded” adds a separate entry of the source.
# Legend:
# [1] = test system: all thirteen of the target anaerobic microorganisms; test: Antimicrobial activity against anaerobic microorganisms; assay type: cell-based
# Method: 1. Maintenance. Prior to use, all strains were maintained in the lyophilized state. During the study, cultures were examined on blood agar basal medium supplemented with 5.0% (v/v) defibrinated rabbit blood. Culture transfer was accomplished weekly with all cultures being incubated in an anaerobic atmosphere (GasPak jar; BBL).
# 2. Agar Medium. The basal test medium consisted of trypticase soy agar (40 g), yeast extract (1 g), glucose (2 g) and 960 ml of distilled water pH 7.2. [Mashimo et al., J. Clin. Micro. 17, 187-191 (1983)]. Subsequent to sterilization and cooling to 50° C., the medium was supplemented with 4% (v/v) defibrinated rabbit blood and 0.5 μg/ml menadione (Vitamin K3) The agent under evaluation was also added at this time to the concentration desired. Subsequent to pouring of the plates, they were permitted to dry at 4° C. for 24 hr.
# 3. Determination of Agent MIC. The minimal inhibitory concentration (MIC) of the various test agents was determined using an agar dilution technique. Agents and appropriate reference compounds were added to achieve a series of concentrations ranging between 32 μg/ml and 0.007 μg/ml. The inocula were prepared from 96-hr. cultures grown on the maintenance medium. Subsequent to a purity evaluation, colonies were removed and suspended in trypticase soy broth supplemented with 5 μg/ml menadione and 2% lysed rabbit blood filtrate to achieve an OD650 of 0.1 (this corresponded to approximately 10^8 cells/ml). Cultures were inoculated aerobically on the modified trypticase soy blood agar plates by use of a Steer's replicator (which delivers about 10^5 cells per spot). The plates were allowed to dry for a time not exceeding 30 min. and then incubated at 37° C. under an atmosphere of […], 10% H2 and 5% CO2 maintained in an anaerobic chamber (Coy Manufacturing Co.) for 48 hr. The MIC was defined as the lowest concentration completely inhibiting growth.
# Tetracycline stock solutions (1 mg/ml) were made subsequent to dissolution in water. Stock solutions (1 mg/ml) of the remaining test compounds were made subsequent to dissolution in 1/10 N NaOH.
# [2] = test system: all 39 bacterial test strains; test: In vitro antibacterial activity; assay type: cell-based
# Method: (§1) Win 52,522 and Win 35,439 were solubilized in 0.1 ml of 0.5 N NaOH/mg of compound and diluted in sterile distilled water to 160 mcg/ml. Vancomycin and methicillin were solubilized in sterile distilled water to 1250 mcg/ml of base compound. The stock solutions were sterilized by filtration through membrane filters with a 0.45 μm pore size.
# (§2) The bacterial cultures listed in Table I (hereinbelow) were grown overnight at 37° C. in MHB for all cultures except the Streptococcus strains. These were grown in BHI+10% NHS. The overnight broth cultures were adjusted to an optical density of 0.10 (650 nm, B L Spectronic 20) in sterile distilled water and subsequently diluted to 6.7×10^6 cells/ml in MHB or BHI+1% NHS.
# (§3) Serial two-fold dilutions of the compound solutions were prepared in MHB (or in BHI+1% NHS for tests with Streptococci) and dispensed into 96-well microtiter trays in a volume of 0.1 ml/well using a Sandy Springs (Bellco Glass Co.) dispenser. The trays were then inoculated with 0.0015 ml of a suspension containing 6.7×10^6 cells/ml of the appropriate inoculum using a MIC-2000 inoculator (Dynatech Corp.) resulting in a final inoculum of approximately 1×10^4 cells/well or 1×10^5 cells/ml. The trays were incubated at 37° C. for 18-20 hours and the minimal inhibitory concentration (MIC), defined as the lowest concentration of compound to inhibit visible bacterial growth, was recorded.
# (§4) After the MIC values were recorded, the contents in the microtiter trays were thoroughly mixed on a Bellco Mini-orbital Shaker (Bellco Glass Co.) for 3 min. at a setting of 8. A portion (0.0015 ml) from each well was then transferred via an MIC-2000 inoculator to plates containing MHA or BHI agar+10% NHS. The plates were incubated at 37° C. for 18-20 hrs. The minimal bactericidal concentration (MBC), defined as the lowest concentration of compound that prevented the formation of a recognizable colony on the agar surface, was recorded.
# [3] = test system: penicillin-sensitive and methicillin-resistant Staphylococcus aureus strains; test: Mouse protection tests, S. aureus infections; assay type: in vivo, ICR mice; Staphylococcus aureus; settings: subcutaneous and oral routes, mice
# Method: ICR mice, female, 18-20 grams each.
# Solutions of Win 52,522 and Win 35,439 were prepared by dissolving the appropriate weight of drug in 0.3 to 0.4 ml of 1 N NaOH and then bringing the solutions to the desired volume with distilled water. Methicillin and vancomycin were dissolved directly in distilled water.
# Mice were inoculated intraperitoneally with 0.5 ml of the bacterial test inoculum.
# Deaths were recorded daily for seven days for all tests. Fifty percent protective dose values (PD50's) were calculated using probit analysis [SAS Users Guide: Statistics, 1982 Edition, SAS Institute, Inc., Cary, N.C.].
# S. pneumoniae = test: In vitro antibacterial activity; assay type: cell-based; settings: one strain of S. pneumoniae
# Method: as §1, §2, §3, §4
# S. pyogenes = test: In vitro antibacterial activity; assay type: cell-based; settings: 3 strains of S. pyogenes
# Method: as §1, §2, §3, §4
compound,measurement,setting,value
"CCn1cc(C(=O)O)c(=O)c2cc(F)c(-c3cc(C)nc(C)c3)cc21 [Win 52,522, 1-ethyl-6-fluoro-1,4-dihydro-7-(2,6-dimethyl-4-pyridinyl)-4-oxo-3-quinolinecarboxylic acid]",antimicrobial activity (in words),[1],"high activity against all thirteen of the target anaerobic microorganisms; also recorded: extremely active against a number of anaerobic microorganisms; also recorded: markedly superior to both Win 35,213 and 35,439; also recorded: broad spectrum of antimicrobial activity, comparing favorably with the currant antibiotic of choice, tetracycline"
same,MBC/MIC,[2]; all Gram-positive and Gram-negative test strains,≤ 4
same,bactericidal / bacteriostatic,[2]; all test strains,bactericidal
same,in vivo efficacy (in words),[3],"more efficacious than Win 35,439; also recorded: very potent antibacterial agent"
CN[C@H](CC(C)C)C(=O)N[C@H]1C(=O)N[C@@H](CC(N)=O)C(=O)N[C@H]2C(=O)N[C@H]3C(=O)N[C@H](C(=O)N[C@H](C(=O)O)c4cc(O)cc(O)c4-c4cc3ccc4O)[C@H](O)c3ccc(c(Cl)c3)Oc3cc2cc(c3O[C@@H]2O[C@H](CO)[C@@H](O)[C@H](O)[C@H]2O[C@H]2C[C@](C)(N)[C@H](O)[C@H](C)O2)Oc2ccc(cc2Cl)[C@H]1O [Vancomycin],bactericidal / bacteriostatic,S. pneumoniae,bacteriostatic
"CCn1cc(C(=O)O)c(=O)c2ccc(-c3cc(C)nc(C)c3)cc21 [Win 35,439, 1-ethyl-1,4-dihydro-7-(2,6-dimethyl-4-pyridinyl)-4-oxo-3-quinolinecarboxylic acid]",bactericidal / bacteriostatic,S. pyogenes,bacteriostatic
